Drawing on patent US10544152B2, “5-HT2CR agonist analogs” (The Board of Regents of The University of Texas System, priority 2017, dated 2020), this text covers Emax, EC50 and inhibition for 10 compounds.

Assay [1] concerns the target T1, 5-HT2CR (Homo sapiens (Human), UniProt P28335). In words: Intracellular calcium (Cai++) release assay, FLIPR Calcium 4, U2OS cells stably expressing 5-HT2CR. It counts as cell-based. The note with it: for Emax: % Cai++ release obtained with 1 μM of WAY163909 (1), U2OS cells expressing human 5-HT2CR; for EC50: Cai++ release, U2OS cell line stably expressing human 5-HT2CR, mean ± SEM, at least three independent experiments. The method, then:
The PathHunter® U2OS HTR2C β-Arrestin cell line (5-HT2cR-U2OS; DiscoveRx) stably express the nonedited human 5-HT2CR isoform (h5-HT2CR). The 5-HT2CR-U2OS cells were grown in Assay Complete™ U2OS Medium 31 (DiscoveRx) at 37° C., 5% CO2 and 85% relative humidity according to manufacturer's recommendations utilizing AssayComplete™ Cell Detachment Reagent (DiscoveRx). Cells were passaged at 70-80% confluence and all experiments were conducted using cells in log phase growth.
The ability of the molecules to act as agonists to induce 5-HT2CR-mediated intracellular calcium (Cai^++) release was conducted in an U2OS cell line stably expressing the human 5-HT2CR.
Intracellular calcium (Cai^++) release was monitored using the FLIPR Calcium 4 Assay Kit (Molecular Devices) according to previously published protocols with minor modifications. See, e.g., Shashack, M. J., et al., ACS Chem Neurosci. 2 (11), 640-644 (2011); Seitz, P. K.; Bremer, N. M., et al., BMC Neurosci. 13, 25 (2012).
Cells were plated at 5,000-7,000 cells/well in Assay Complete™ Cell Plating Reagent 16 (DiscoveRx) in black-sided, clear bottomed 96-well tissue culture plates and allowed to adhere overnight. Medium was removed and replaced with 40 μl Hank's balanced salt solution without calcium, magnesium and phenol red (HBSS; Corning) plus 40 μl Calcium 4 dye solution in Buffer B supplemented with 2.5 mM probenecid (Sigma-Aldrich) to inhibit extracellular dye transport. Plates were incubated for 60 min at 37° C. followed by 30 min at room temperature in the dark.
Fluorescence (λex=485 nm, λem=525 nm) was measured using a FlexStation3 (Molecular Devices). Baseline was established for 17 secs before addition of 20 μl vehicle (HBSS without calcium or magnesium) or 5× concentrated compound. […] Maximum peak height was determined using FlexStation software (SoftMax Pro 5.4). After the final readings, cells were fixed in 2% paraformaldehyde overnight.
Peak responses from each well were normalized to total cell mass as determined with crystal violet staining. See e.g., Ding, C. et al., ACS Chem. Neurosci 3 (7), 538-545 (2012). […] Potency of the compounds was determined using the EC50 (concentration of compound required to achieve half-maximal response). The EC50 values were determined using 4-parameter nonlinear regression analysis and calculated from at least three independent experiments, each conducted in triplicate, and are presented as mean±SEM. Ratkowsky, D. A., et al., Biometrics 42, 575-582 (1986).

Assay [2] deals with 5-HT2AR (Homo sapiens (Human), UniProt P28223). The assay is described as follows: CEREP radioligand displacement of [125I]-(±)-DOI at 5-HT2AR. The note with it: read-out: mean percent inhibition of control specific binding, 5-HT2AR. The procedure: (§1) Compounds were submitted to CEREP to determine receptor selectivity at the 5-HT2 Compounds were tested at a single concentration of 10 μM in duplicate to determine their ability to displace [^125I]-(±)-DOI. The data are presented as mean percent inhibition of control specific binding for compound tested at each receptor subtype (Table 2). Significant inhibition is considered >50%; 25-50% inhibition is indicative of weak to moderate effects.

Assay [3] concerns the target 5-HT2BR (Homo sapiens (Human), UniProt P41595). In words: CEREP radioligand displacement of [125I]-(±)-DOI at 5-HT2BR. The note with it: duplicate, read-out: mean percent inhibition of control specific binding, 5-HT2BR. The procedure:
as §1

The target of assay [4] is T1, 5-HT2CR. The assay is described as follows: CEREP radioligand displacement of [125I]-(±)-DOI at 5-HT2CR. Particulars: duplicate, read-out: mean percent inhibition of control specific binding, 5-HT2CR. The procedure: as §1

Like-named read-outs stand apart in the source and are kept apart here.

Sequence of 5-HT2BR (P41595 whole entry): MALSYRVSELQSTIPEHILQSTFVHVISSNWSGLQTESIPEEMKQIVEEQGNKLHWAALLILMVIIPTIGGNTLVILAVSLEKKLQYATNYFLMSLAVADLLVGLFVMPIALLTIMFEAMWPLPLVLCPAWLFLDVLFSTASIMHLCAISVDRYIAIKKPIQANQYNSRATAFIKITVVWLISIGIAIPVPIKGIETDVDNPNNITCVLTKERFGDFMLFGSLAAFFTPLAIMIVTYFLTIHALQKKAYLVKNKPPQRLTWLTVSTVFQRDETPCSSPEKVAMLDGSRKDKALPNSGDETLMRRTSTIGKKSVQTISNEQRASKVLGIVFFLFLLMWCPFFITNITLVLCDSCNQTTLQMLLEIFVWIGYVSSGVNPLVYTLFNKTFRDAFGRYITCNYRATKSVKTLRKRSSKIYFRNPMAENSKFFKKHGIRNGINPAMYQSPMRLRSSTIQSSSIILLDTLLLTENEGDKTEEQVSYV
Sequence of 5-HT2AR (P28223 whole entry): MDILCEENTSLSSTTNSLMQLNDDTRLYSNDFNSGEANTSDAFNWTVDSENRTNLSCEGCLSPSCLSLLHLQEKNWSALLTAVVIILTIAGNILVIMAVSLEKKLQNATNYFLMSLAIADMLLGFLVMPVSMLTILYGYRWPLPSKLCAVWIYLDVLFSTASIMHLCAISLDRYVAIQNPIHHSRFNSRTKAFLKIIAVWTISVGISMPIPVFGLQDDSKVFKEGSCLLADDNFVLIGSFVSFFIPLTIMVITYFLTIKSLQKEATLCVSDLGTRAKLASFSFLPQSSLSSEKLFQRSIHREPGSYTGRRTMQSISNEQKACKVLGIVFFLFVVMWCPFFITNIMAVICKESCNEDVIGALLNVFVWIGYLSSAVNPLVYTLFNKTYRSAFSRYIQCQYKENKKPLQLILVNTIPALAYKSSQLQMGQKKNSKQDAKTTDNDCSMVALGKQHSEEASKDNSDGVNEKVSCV
T1 sequence (P28335 33-458): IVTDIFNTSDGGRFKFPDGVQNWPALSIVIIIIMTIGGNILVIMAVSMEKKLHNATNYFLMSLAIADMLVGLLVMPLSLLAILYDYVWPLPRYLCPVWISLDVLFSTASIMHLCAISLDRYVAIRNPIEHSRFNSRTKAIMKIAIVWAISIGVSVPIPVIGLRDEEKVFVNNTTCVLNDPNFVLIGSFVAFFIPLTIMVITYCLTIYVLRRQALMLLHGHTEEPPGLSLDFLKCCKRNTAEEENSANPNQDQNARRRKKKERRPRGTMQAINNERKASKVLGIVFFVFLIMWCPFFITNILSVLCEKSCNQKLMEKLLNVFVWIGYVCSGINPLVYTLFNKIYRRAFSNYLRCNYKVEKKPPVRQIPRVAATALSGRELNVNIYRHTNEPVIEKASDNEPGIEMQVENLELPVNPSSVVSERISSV

`c1cc2c3c(c1)[C@H]1CCC[C@H]1N3CCNC2` (racemic) [Compound 1, (7bR,10aR)-1,2,3,4,8,9,10,10a-octahydro-7bH-cyclopenta-[b][1,4]diazepino[6,7,1hi]indole, reference compound]: the Emax in assay [1] is 100%.
On to `COc1cc2c3c(c1)[C@H]1CCC[C@H]1N3CCNC2` (racemic) [Compound 17], for which, in assay [1], the Emax was 95.9 ± 1.5% and the EC50 is 1480 ± 238 nM.
In the case of `COc1ccc2c3c1C1CCCC1N3CCNC2` (racemic) [Compound 18, 7-methoxy-2,3,4,7b,8,9,10,10a-octahydro-1H-cyclopenta[b][1,4]diazepino[6,7,1-hi]indole], in assay [1], the Emax stood at 103 ± 4.6% and the EC50 was determined as 2.4 ± 0.4 nM.
On to `Oc1ccc2c3c1[C@H]1CCC[C@H]1N3CCNC2` (racemic) [Compound 35], for which, in assay [1], the Emax is 95.9 ± 2.6% and the EC50 is 119 ± 11.5 nM.
Take `COc1ccc2c3c1[C@H]1CCC[C@H]1N3CCNC2` (racemic) [Compound 36, 7-methoxy-2,3,4,7b,8,9,10,10a-octahydro-1H-cyclopenta[b][1,4]diazepino[6,7,1-hi]indole]: in assay [1], the Emax came to 105 ± 6.1%. Besides, the EC50 in assay [1] was 1.2 ± 0.3 nM. Besides, the inhibition at 10 µM in assay [2] was 86.5%; in assay [3], 98.6%; in assay [4], 100%.
As to `C#CCOCCOc1ccc2c3c1C1CCCC1N3CCNC2` (racemic) [Compound 44, 7-(2-(Prop-2-ynyloxy)ethoxy)-2,3,4,7b,8,9,10,10a-octahydro-1H-cyclopenta[b][1,4]diazepino[6,7,1-hi]indole], in assay [1], the Emax worked out at 97.2 ± 2.3% and the EC50 was found to be 51.9 ± 9.6 nM.
Take `C#CCOCCOCCOc1ccc2c3c1C1CCCC1N3CCNC2` (racemic) [Compound 45, 7-(2-(2-(prop-2-ynyloxy)ethoxy)ethoxy)-2,3,4,7b,8,9,10,10a-octahydro-1H-cyclopenta[b][1,4]diazepino[6,7,1-hi]indole]: the Emax in assay [1] was determined as 99.3 ± 2.2%. Also, the EC50 in assay [1] stood at 218 ± 53.1 nM. In addition, the inhibition at 10 µM stood at 67.1% in assay [2] (10 μM, duplicate, displacement of [125I]-(±)-DOI); 67.7% in assay [3]; 99.6% in assay [4].
As to `COc1ccc2c3c1[C@@H]1CCC[C@@H]1N3CCNC2` (stereo in doubt) [Compound 37, 7-methoxy-2,3,4,7b,8,9,10,10a-octahydro-1H-cyclopenta[b][1,4]diazepino[6,7,1-hi]indole], the Emax in assay [1] was determined as 97.6 ± 4.7%. In addition, in assay [1], the EC50 was found to be 72.4 ± 14.5 nM. Besides, the inhibition at 10 µM in assay [2] is 22.8%; in assay [3], 4.8%; in assay [4], 91.5%.
Regarding `OCCc1c[nH]c2ccc(O)cc12` [Compound 27, reference compound], in assay [1], the Emax stood at 100% and the EC50 was found to be 0.33 ± 0.1 nM.
For `C#CCOCCOCCOCCOc1ccc2c3c1C1CCCC1N3CCNC2` (stereo not shown) [Compound 46, 7-(2-(2-(2-(prop-2-ynyloxy)ethoxy)ethoxy)ethoxy)-2,3,4,7b,8,9,10,10a-octahydro-1H-cyclopenta[b][1,4]diazepino[6,7,1-hi]indole], in that order: 95.2 ± 2.3% and 575 ± 112 nM.
